This test has as its target T1, human CD73 (Homo sapiens, UniProt P21589).
T1 construct: host or cells: CHO-K1 (suspension pool CHO-CD73)
T1 sequence (P21589 27-549): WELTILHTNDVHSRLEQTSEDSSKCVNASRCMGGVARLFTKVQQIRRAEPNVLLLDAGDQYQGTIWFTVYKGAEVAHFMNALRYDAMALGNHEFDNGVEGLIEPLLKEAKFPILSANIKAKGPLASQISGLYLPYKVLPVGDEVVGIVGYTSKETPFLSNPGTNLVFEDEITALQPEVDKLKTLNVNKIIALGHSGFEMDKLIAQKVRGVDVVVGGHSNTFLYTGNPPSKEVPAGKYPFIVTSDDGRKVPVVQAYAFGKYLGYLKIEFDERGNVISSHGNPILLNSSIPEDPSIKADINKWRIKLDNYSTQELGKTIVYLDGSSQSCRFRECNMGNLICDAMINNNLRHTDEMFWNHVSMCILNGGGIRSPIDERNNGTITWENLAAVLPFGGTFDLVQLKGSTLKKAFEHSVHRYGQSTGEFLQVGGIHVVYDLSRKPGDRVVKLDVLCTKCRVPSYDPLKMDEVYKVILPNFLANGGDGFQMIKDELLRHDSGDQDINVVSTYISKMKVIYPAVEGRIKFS
The test is described as follows: Inhibition of ecto-5′-nucleotidase (CD73) activity in CHO-CD73 cells, phosphate colorimetric readout. Type of test: cell-based. The settings on record: CHO-K1 cells stably transfected with human CD73, 2500 cells per well, 25 μM AMP substrate, 50 minutes incubation at 37° C.; read-out: Potency: CD73 IC50. As for the experimental part:
Inhibition of Ecto-5′-nucleotidase Activity. Compounds were evaluated to determine their ecto-5′-nucleotidase (CD73) inhibitory activity. Briefly, CHO-K1 cells stably transfected with human CD73 were generated by LakePharma (Belmont, CA) using molecular cloning of human CD73 (http://www.uniprot.org/uniprot/P21589) and mammalian transient expression vector (P21589.1). After antibiotic selection in CD OptiCHO cell media (Invitrogen, Catalog #12681-011) containing 5 μg/mL Puromycin and 200 μg/mL Hygromycin B, a suspension pool of CHO-CD73 cells was collected and frozen in 7.5% DMSO in cell media without antibiotics.
On the day of the experiment, one vial of CHO-CD73 cells was thawed and suspended in assay media which consisted of 20 mM HEPES, pH 7.4, 137 mM NaCl, 5.4 mM KCl, 1.3 mM CaCl2), 4.2 mM NaHCO3 and 0.1% glucose. To test the ability of compounds to inhibit CD73 enzymatic activity, 2 μL of 500 μM of compounds dissolved in DMSO (50×) were added to a 96-well polystyrene plate containing 58 μL of assay buffer. Next, 20 μL of CHO-CD73 cells in assay buffer were added to assay plate followed by 20 μL of 125 μM AMP (Adenosine 5′-monophosphate monohydrate) in assay buffer. Final assay conditions consisted of 2500 cells per well in 2% DMSO and 25 μM of AMP substrate. After 50 minutes of incubation (37° C. and 5% CO2) and centrifugation at 225×g for 5 mins, 80 μL of supernatant were transferred to a 96-well Spectra Plate (PerkinElmer, cat #6005640) which was pre-dispensed with 20 μL of PiColorLock Gold colorimetric assay reagents (Thermo, cat #30 300 30). The amount of inorganic phosphate was determined by reading the absorbance at 620 nm on an EnVision Multilabel Plate Reader (PerkinElmer). Enzymatic activity of CD73 was based on the amount of phosphate generated. Percentage of activity was calculated based on DMSO and no cells control wells. IC50 values of compounds were determined by four parameter non-linear regression fitting of percentage of activity in GraphPad Prism software.

SMILES strings stand for the structures. Where only a bound is given, the exact number is not on record here.

The term IC50 denotes the concentration needed to halve the response being measured. `CC(C)Nc1nc(Cl)nc2c1ncn2[C@@H]1O[C@H](COP(=O)(O)CP(=O)(O)O)[C@@H](O)[C@H]1O`: the half-maximal inhibitory concentration (IC50) is below 100 nM. The value for `O=P(O)(O)CP(=O)(O)OC[C@H]1O[C@@H](n2cnc3c(NC4CC4)nc(Cl)nc32)[C@@H](F)[C@@H]1O` was below 100 nM; that for `CC(C)(C)CNc1nc(Cl)nc2c1ncn2[C@@H]1O[C@H](COP(=O)(O)CP(=O)(O)O)[C@@H](O)[C@H]1O` was below 100 nM. In the case of `CC(C)N(C)c1nc(Cl)nc2c1ncn2[C@@H]1O[C@H](COP(=O)(O)CP(=O)(O)O)[C@@H](O)[C@H]1O`, the 50% inhibitory concentration (IC50) is below 100 nM. To `O=P(O)(O)CP(=O)(O)OC[C@H]1O[C@@H](n2cnc3c(NCc4cccc(F)c4)nc(Cl)nc32)[C@@H](F)[C@@H]1O` belongs below 100 nM. The value for `O=P(O)(O)CP(=O)(O)OC[C@H]1O[C@@H](n2cnc3c(NCc4cccc(Cl)c4)nc(Cl)nc32)[C@@H](F)[C@@H]1O` was below 100 nM. In the case of `O=P(O)(O)CP(=O)(O)OC[C@H]1O[C@@H](n2cnc3c(NCc4ccccc4Cl)nc(Cl)nc32)[C@@H](F)[C@@H]1O`, the IC50 was below 100 nM. The value for `CN(Cc1ccccc1Cl)c1nc(Cl)nc2c1ncn2[C@@H]1O[C@H](COP(=O)(O)CP(=O)(O)O)[C@@H](O)[C@@H]1F` was below 100 nM. Regarding `O=P(O)(O)CP(=O)(O)OC[C@H]1O[C@@H](n2cnc3c(NCc4ccncc4)nc(Cl)nc32)[C@@H](F)[C@@H]1O`, the IC50 is below 100 nM. As for `O=P(O)(O)CP(=O)(O)OC[C@H]1O[C@@H](n2cnc3c(NCCc4ccccc4)nc(Cl)nc32)[C@@H](F)[C@@H]1O`, the IC50 is below 100 nM. To `Cc1nc(NCc2ccccc2)c2ncn([C@@H]3O[C@H](COP(=O)(O)CP(=O)(O)O)[C@@H](O)[C@@H]3F)c2n1` belongs below 100 nM; to `Cc1nc(NC2CCCC2)c2ncn([C@@H]3O[C@H](COP(=O)(O)CP(=O)(O)O)[C@@H](O)[C@@H]3F)c2n1`, below 100 nM.

As for `O=P(O)(O)CP(=O)(O)OC[C@H]1O[C@@H](n2cnc3c(NCc4ccccc4)nc(C(F)(F)F)nc32)[C@@H](F)[C@@H]1O`, the IC50 was below 100 nM. Consider `O=P(O)(O)CP(=O)(O)OC[C@H]1O[C@@H](n2cnc3c(NC4CCCC4)nc(C(F)(F)F)nc32)[C@@H](F)[C@@H]1O`, for which the IC50 is below 100 nM. The value for `O=P(O)(O)CP(=O)(O)OC[C@H]1O[C@@H](n2cnc3c(NCc4ccccc4)nc(-c4ccccc4)nc32)[C@@H](F)[C@@H]1O` was below 100 nM; that for `O=P(O)(O)CP(=O)(O)OC[C@H]1O[C@@H](n2cnc3c(NCc4ccccc4)nc(Cc4ccccc4)nc32)[C@@H](F)[C@@H]1O` was below 100 nM; that for `O=P(O)(O)CP(=O)(O)OC[C@H]1O[C@@H](n2cnc3c(NC4CCCC4)nc(CN4CCCCC4)nc32)[C@@H](F)[C@@H]1O` was 100 to 1000 nM. For the compound `COCc1nc(NC2CCCC2)c2ncn([C@@H]3O[C@H](COP(=O)(O)CP(=O)(O)O)[C@@H](O)[C@@H]3F)c2n1`, the IC50 is below 100 nM. As for `O=P(O)(O)CP(=O)(O)OC[C@H]1O[C@@H](n2cnc3c(NCc4ccccc4)nc(C(O)c4ccccc4)nc32)[C@@H](F)[C@@H]1O` (stereo partly drawn), the IC50 was below 100 nM. Take `O=P(O)(O)CP(=O)(O)OC[C@H]1O[C@@H](n2cnc3c(NCc4ccccc4)nc(C#Cc4ccccc4)nc32)[C@@H](F)[C@@H]1O`: the IC50 is below 100 nM.

In the case of `O=P(O)(O)CP(=O)(O)OC[C@H]1O[C@@H](n2cnc3c(NCc4ccccc4)nc(CCc4ccccc4)nc32)[C@@H](F)[C@@H]1O`, the IC50 is below 100 nM. `C#Cc1nc(NCc2ccccc2)c2ncn([C@@H]3O[C@H](COP(=O)(O)CP(=O)(O)O)[C@@H](O)[C@@H]3F)c2n1`: the IC50 was below 100 nM. The value for `O=P(O)(O)CP(=O)(O)OC[C@H]1O[C@@H](n2cnc3c(OCc4ccccc4)nc(Cl)nc32)[C@@H](F)[C@@H]1O` was below 100 nM; that for `O=P(O)(O)CP(=O)(O)OC[C@H]1O[C@@H](n2ccc3c(NCc4ccccc4)nc(Cl)nc32)[C@@H](F)[C@@H]1O` was below 100 nM; that for `O=P(O)(O)CP(=O)(O)OC[C@H]1O[C@@H](n2ccc3c(NC4CCCC4)nc(Cl)nc32)[C@@H](F)[C@@H]1O` was below 100 nM. To `CC(Cn1cnc2c(NCc3ccccc3)ncnc21)OP(=O)(O)CP(=O)(O)O` (stereo not drawn) belongs above 1000 nM; to `CC(COP(=O)(O)CP(=O)(O)O)n1cnc2c(NCc3ccccc3)ncnc21` (stereo not drawn), above 1000 nM; to `Nc1nc(F)nc2c1ncn2[C@@H]1O[C@H](COP(=O)(O)CP(=O)(O)O)[C@@H](O)[C@H]1O`, below 100 nM. `Nc1nc(C(O)C2CC2)nc2c1ncn2[C@@H]1O[C@H](COP(=O)(O)CP(=O)(O)O)[C@@H](O)[C@@H]1F` (stereo partly drawn): the IC50 was below 100 nM.

For the compound `CN(c1nc(Cl)nc2c1ncn2[C@@H]1O[C@H](COP(=O)(O)CP(=O)(O)O)[C@@H](O)[C@H]1O)C1CCCC1`, the IC50 was below 100 nM. To `CC(OP(=O)(O)CP(=O)(O)O)[C@H]1O[C@@H](n2cnc3c(NCc4ccccc4)nc(Cl)nc32)[C@H](O)[C@@H]1O` (stereo partly drawn) belongs below 100 nM; to `CCC(OP(=O)(O)CP(=O)(O)O)[C@H]1O[C@@H](n2cnc3c(NCc4ccccc4)nc(Cl)nc32)[C@H](O)[C@@H]1O` (stereo partly drawn), below 100 nM. For the compound `C[C@@]1(O)[C@H](O)[C@@H](COP(=O)(O)CP(=O)(O)O)O[C@H]1n1cnc2c(NC3CCCC3)nc(Cl)nc21`, the IC50 was below 100 nM. Consider `CN(c1nc(Cl)nc2c1ncn2[C@@H]1O[C@H](COP(=O)(O)CP(=O)(O)O)[C@@H](O)[C@@]1(C)O)C1CCCC1`, for which the half-inhibitory concentration (IC50) was below 100 nM. In the case of `COP(=O)(O)CP(=O)(O)OC[C@H]1O[C@@H](n2cnc3c(NC4CCCC4)nc(Cl)nc32)[C@H](O)[C@@H]1O`, the IC50 is 100 to 1000 nM.

Turning to `CN(c1nc(Cl)nc2c1ncn2[C@@H]1O[C@H](COP(=O)(CP(=O)(Oc2ccccc2)Oc2ccccc2)Oc2ccccc2)[C@@H](O)[C@H]1O)C1CCCC1` (stereo partly drawn), the IC50 was above 1000 nM. The value for `CN(c1nc(Cl)nc2c1ncn2[C@@H]1O[C@H](COP(=O)(CP(=O)(Oc2cccc(Cl)c2)Oc2cccc(Cl)c2)Oc2cccc(Cl)c2)[C@@H](O)[C@H]1O)C1CCCC1` (stereo partly drawn) was above 1000 nM; that for `CN(c1nc(Cl)nc2c1ncn2[C@@H]1O[C@H](COP(=O)(CP(=O)(Oc2ccc(Cl)c(Cl)c2)Oc2ccc(Cl)c(Cl)c2)Oc2ccc(Cl)c(Cl)c2)[C@@H](O)[C@H]1O)C1CCCC1` (stereo partly drawn) was above 1000 nM. For `COC(=O)c1ccccc1OP(=O)(CP(=O)(Oc1ccccc1C(=O)OC)Oc1ccccc1C(=O)OC)OC[C@H]1O[C@@H](n2cnc3c(N(C)C4CCCC4)nc(Cl)nc32)[C@H](O)[C@@H]1O` (stereo partly drawn), the 50% inhibitory concentration (IC50) is above 1000 nM. The value for `C[C@H](Nc1nc(Cl)nc2c1ncn2[C@@H]1O[C@H](COP(=O)(O)CP(=O)(O)O)[C@@H](O)[C@@H]1F)c1ccc(F)cc1` was below 100 nM; that for `C[C@@H](Nc1nc(Cl)nc2c1ncn2[C@@H]1O[C@H](COP(=O)(O)CP(=O)(O)O)[C@@H](O)[C@@H]1F)c1ccccc1` was below 100 nM; that for `C[C@H](Nc1nc(Cl)nc2c1ncn2[C@@H]1O[C@H](COP(=O)(O)CP(=O)(O)O)[C@@H](O)[C@@H]1F)c1ccccc1` was below 100 nM.

`O=P(O)(O)CP(=O)(O)OC[C@H]1O[C@@H](n2cnc3c(NC4CCCC4)nc(C(O)C4CCOCC4)nc32)[C@@H](F)[C@@H]1O` (stereo partly drawn): the half-maximal inhibitory concentration (IC50) is 100 to 1000 nM. The value for `CN(c1nc(Cl)nc2c1ncn2[C@@H]1O[C@H](COP(=O)(O)CP(=O)(O)O)[C@@H](O)[C@@H]1F)C1CCCC1` was below 100 nM.

Consider `COP(=O)(O)CP(=O)(O)OC[C@H]1O[C@@H](n2cnc3c(N(C)C4CCCC4)nc(Cl)nc32)[C@@H](F)[C@@H]1O`, for which the IC50 was in the range of 100 to 1000 nM.

These data come from patent publication US12459967B2, “Modulators of 5′-nucleotidase, ecto and the use thereof” (Arcus Biosciences, Inc., priority 2016, dated 2025).
